From US10793531B2, “Triazole derivatives and their use as PDE4 activators” (MIRONID LIMITED, priority 2015, dated 2020)
Where two headings read alike, the source gives them in different places.

Columns and labels:
[1] = test system: androgen-insensitive (AI) LNCaP human prostate cancer cells; assay: Xcelligence proliferation assay, androgen-insensitive LNCaP cells (Experiment 5); format: cell-based; settings: normalised cell index at 72 hours; FIG. 10
Procedure: In this study, the potential utility of PDE4 long form activators in the treatment of prostate cancer was studied using the LNCaP human prostate cancer cell line. The experiments were carried out according to the method described by Henderson et al. (Henderson, D. J. P., Byrne, A., Dulla, K., Jenster, G., Hoffmann, R., Baillie, G. S., Houslay, M. D. Br. J. Cancer 110: 1278-1287, 2014).
Androgen-sensitive (AS) LNCaP cells were maintained in RPMI1640 supplemented with 10% FBS (Seralabs), 2 mM L-glutamine and 1,000 U penicillin-streptomycin. LNCaP androgen-insensitive (AI) cells were generated in-house by culturing the LNCaP-AS cells in RPMI1640 supplemented with 10% charcoal stripped FBS, 2 mM L-glutamine and 1,000 U penicillin-streptomycin for a minimum of four weeks. All tissue culture reagents were, from Life Technologies.
Cell proliferation is measured as a function of changing electrical impedance. Values are represented by cell index number, a dimensionless unit of measurement representing the cell status, which increases as cells adhere to 96-well electrode plates and divide. […]
Cell indices were measured every 10 minutes for up to 100 hours, analysed using RICA software and normalised to the cell index of vehicle-treated cells (n=3).

[2] = Pharmacokinetic profile in male C57 mice (Experiment 7); format: in vivo, mouse
Procedure: Example A was dissolved in 5% DMA+10% Solutol+85%(10% HPBCD in water) to afford a clear dosing solution of 1 mg/mL. The dosing solution was administered to three mice at 2 mg/kg i.v. via the tail vein and to three further mice at 10 mg/kg p.o. via oral gavage. Blood samples (ca. 20 μL) were collected at 2, 5, 20 min, 1, 2, 4, 8 and 12 h after i.v. dosing and at 15, 30 min, 1, 2, 4, 8, 12 and 24 h after oral dosing. The blood samples were diluted with 3 volumes of distilled water and stored at −80° C. until analysis. The samples were analysed by UPLC-MS/MS (API 5500).

MDCK cells = assay: Inhibition of in vitro cyst formation in MDCK cells (Experiment 3); format: cell-based, canine; settings: compound added every 2 days from day 0 to day 20, with forskolin and vasopressin; FIG. 7
Procedure: In this study, the well-established three-dimensional (3D) MDCK cell model was used to investigate the effects of PDE4 long form activators on the formation of kidney cysts and evaluate their potential in the treatment of polycystic kidney diseases. 3D cysts were generated based on the method of Mao et al. (Mao, Z., Streets, A. J., Ong, A. C. M. Am. J. Physiol. Renal Physiol. 300(6): F1375-F1384, 2011), with some modifications. MDCK cells (50,000 cells/well) were seeded into collagen (Life Technologies; final concentration 1 mg/mL), containing 17 mM NaOH in DMEM, supplemented with 2% (v/v) FBS, 2 mM L-glutamine and 2 mM L-glutamine, 1,000 U penicillin and 1,000 μg streptomycin (DMEM-2% FBS), on ice. Upon gelling at 37° C., 1 mL of DMEM-2% FBS was added along with the test compound indicated in the presence of 10 μM forskolin (Sigma) and 1 μg/mL [Arg^8]-vasopressin acetate salt (Sigma). Media was replenished every 2 days for 20 days; at every feed, test compound, forskolin and vasopressin were added.
Phase-contrast images were obtained on the Motic microscope (×200 magnification) every 2 days for 20 days. Per condition, 10 images were taken (in duplicate) and the average cyst radius measured.

**Q.** Which results are given for CCc1nc(-c2ccc(Cl)c(F)c2)nn1CC(=O)NCc1cccc(F)c1 [Example A, N-(3-Fluorobenzyl)-2-[3-(4-chloro-3-fluorophenyl)-5-ethyl-1H-1,2,4-triazol-1-yl]acetamide]?
**A.** proliferation of androgen-insensitive (AI) LNCaP cells (in words) [1]: inhibits the proliferation; abnormal effects observed in the mice ([2]; 2 mg/kg i.v. or 10 mg/kg p.o.): No abnormal effects were observed; half-life ([2]; mouse, iv, 2 mg/kg i.v., whole blood, read-out: terminal half life after i.v. dosing (converted)): 252 min; bioavailability ([2]; mouse, oral, 10 mg/kg p.o. vs 2 mg/kg i.v., whole blood): 66%; half-life ([2]; mouse, po, 10 mg/kg p.o., whole blood, read-out: terminal half life after oral dosing (converted)): 294 min; in vitro cyst formation in MDCK cells, inhibition (in words) (MDCK cells): inhibition of in vitro cyst formation
